According to paper PMC5971303, “α-Amylase and α-Glucosidase Inhibitory Activities of Chemical Constituents from Wedelia chinensis (Osbeck.) Merr. Leaves” (Journal of Analytical Methods in Chemistry, 2018):

What was measured:
[1] = target: T1, porcine pancreas α-amylase (Sus scrofa, UniProt P00690); test: Assay for α-amylase inhibition (potato starch substrate, iodine, absorbance at 650 nm); type: biochemical; details: for α-amylase inhibitory effect (in words): compared with acarbose; for IC50: porcine pancreas α-amylase, tested three times, mean ± SD
T1 construct: purchased Sigma-Aldrich A3176
T1 sequence (P00690 16-511): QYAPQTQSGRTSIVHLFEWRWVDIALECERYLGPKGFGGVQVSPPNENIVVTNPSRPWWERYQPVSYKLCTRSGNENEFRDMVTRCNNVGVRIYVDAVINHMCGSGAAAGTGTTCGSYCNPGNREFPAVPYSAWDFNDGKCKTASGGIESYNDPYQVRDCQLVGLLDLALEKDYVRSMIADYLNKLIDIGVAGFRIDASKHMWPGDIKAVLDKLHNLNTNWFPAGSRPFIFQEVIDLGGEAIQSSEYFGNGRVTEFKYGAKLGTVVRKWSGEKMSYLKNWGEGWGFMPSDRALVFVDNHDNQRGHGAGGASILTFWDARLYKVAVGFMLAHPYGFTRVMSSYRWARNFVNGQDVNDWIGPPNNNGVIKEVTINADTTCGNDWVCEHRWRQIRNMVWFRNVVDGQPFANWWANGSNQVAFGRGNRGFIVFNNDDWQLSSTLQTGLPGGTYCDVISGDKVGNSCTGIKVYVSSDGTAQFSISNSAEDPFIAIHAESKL
Description: The substrate was prepared by boiling 100 mg potato starch in 5 mL phosphate buffer (pH 7.0) for 5 min and then cooling to room temperature. The sample ([…] dissolved in DMSO) and substrate ([…]) were mixed in […] of 0.1 M phosphate buffer (pH 7.0). After 5 min preincubation, 5 mg/mL α-amylase solution (20 mL) was added, and the solution was incubated at 37°C for 15 min. The reaction was stopped by adding […] of 1 M·HCl, and then, […] of iodine solution was added. The absorbances were measured at 650 nm by a microplate reader. […] The inhibitory activity was calculated by the following equation: α-amylase inhibitory activity (%) = (1–A/A0) × 100, where A is the absorbance of the sample and A0 is the absorbance of the blank, respectively. The IC50 value was calculated by GraphPad Prism.
(§1) Inhibition of α-glucosidase is one very effective way of delaying glucose absorption and lowering the postprandial blood glucose level, which can potentially suppress the progression of DM.

[2] = test system: yeast α-glucosidase; test: Assay for α-glucosidase inhibition (p-nitrophenyl-α-D-glucopyranoside substrate, absorbance at 405 nm); type: biochemical; details: for α-glucosidase inhibitory effect (in words): compared with acarbose; for α-Glucosidase IC50 ± SD: tested three times, mean ± SD
Description: The yeast α-glucosidase (G0660, Sigma-Aldrich) inhibition assay was performed using the substrate p-nitrophenyl-α-D-glucopyranoside according to the previously described method. […] After 5 min preincubation, 5 mM p-nitrophenyl-α-D-glucopyranoside solution ([…]) was added, and the solution was incubated at 37°C for 30 min. […]. Each concentration of samples was carried out in triplicate. The absorbance of released 4-nitrophenol was measured at 405 nm by using a microplate reader (xMark, Bio-Rad, USA). […] The inhibitory activity was calculated by the following equation: α-glucosidase inhibitory activity (%) = (1–A/A0) × 100, where A is the absorbance of the sample and A0 is the absorbance of the blank, respectively. The IC50 value was calculated by GraphPad Prism.
as §1

| Structure (SMILES) | α-amylase inhibitory effect (in words) [1] | IC50 [1] [µM] | α-glucosidase inhibitory effect (in words) [2] | α-Glucosidase inhibition (symbol in IC50 column) ([2]; yeast α-glucosidase, dash = no inhibition (less than 10% inhibition)) | α-Glucosidase IC50 ± SD ([2]; yeast α-glucosidase) [µg/mL] |
| --- | --- | --- | --- | --- | --- |
| C[C@@H]1CC[C@]2(C(=O)O)CC[C@]3(C)C(=CC[C@@H]4[C@@]5(C)CCC(=O)C(C)(C)[C@@H]5CC[C@]43C)[C@@H]2[C@]1(C)O [Compound 8, pomonic acid] | moderate | 894 | moderate | — ((‒): no inhibition (less than 10% inhibition)) |  |
| CC(O)C=CC12OC1(C)C(O)C(OS(=O)(=O)O)CC2(C)C [Compound 1, (3S,4R,5R,6S,9S,7E)-megastigman-5,6-epoxy-7-ene,4,9-diol,3-sulfonic acid] | moderate | 1350 | moderate |  | 915.6 ± 36.5 |
| C[C@@H]1CC[C@]2(C(=O)O)CC[C@]3(C)C(=CC[C@@H]4[C@@]5(C)CC[C@H](O)C(C)(C)[C@@H]5CC[C@]43C)[C@@H]2[C@]1(C)O [Compound 9, pomolic acid] | moderate | 837 | moderate |  | 821.4 ± 55.2 |
| COc1cc(-c2cc(=O)c3c(O)c(OC)c(O)cc3o2)ccc1O [Compound 7, jaceosidin] |  | 342 |  |  | 785.9 ± 12.7 |
